What follows are compounds tested on Bmi-1 protein (assay: Sandwich ELISA Assay (Bmi-1 protein level in HT-1080 cells after compound treatment)). Settings: Table 1, Bmi-1 sandwich ELISA, read-out: ELISA EC50 value for Bmi-1 protein.
Assay type: cell-based
Procedure, shortened: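 HT-1080 cells exposed to compounds for 40–48 h at 37 °C (0.5% DMSO final), then lysed. Bmi-1 in lysates measured by sandwich ELISA (mouse monoclonal capture, rabbit anti-Bmi-1 detection, HRP anti-rabbit, TMB), read at OD450 with OD570 reference against a recombinant Bmi-1 standard curve (0–8000 pg/mL).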
`Cc1nc2cc(OC(F)(F)F)ccc2n1-c1cncc(Nc2ccc(C(F)(F)F)cc2)n1` [compound 356, 6-[2-methyl-5-(trifluoromethoxy)-1H-benzimidazol-1-yl]-N-[4-(trifluoromethyl)phenyl]pyrazin-2-amine] showed an EC50 of 100 to 3000 nM. For `Cc1nc2ccc(OC(F)(F)F)cc2n1-c1cncc(Nc2ccc(C(F)(F)F)cc2)n1` [compound 357, 6-[2-methyl-6-(trifluoromethoxy)-1H-benzimidazol-1-yl]-N-[4-(trifluoromethyl)phenyl]pyrazin-2-amine], the EC50 was 100 to 3000 nM. `Cc1nc2cccc(F)c2n1-c1cncc(Nc2ccc(C(F)(F)F)cc2)n1` [compound 358, 6-(7-fluoro-2-methyl-1H-benzimidazol-1-yl)-N-[4-(trifluoromethyl)phenyl]pyrazin-2-amine] was tested, and the EC50 was 10 to 100 nM. In the case of `Cc1nc2cc(F)c(F)cc2n1-c1cc(C#N)cc(Nc2ccc(C(F)(F)F)c(F)c2)n1` [compound 359, 2-(5,6-difluoro-2-methyl-1H-benzimidazol-1-yl)-6-{[3-fluoro-4-(trifluoromethyl)phenyl]amino}pyridine-4-carbonitrile], the EC50 is reported as 100 to 3000 nM. With `Cc1nc2ncccc2n1-c1cncc(NC2=CCC(F)(C(F)(F)F)C=C2)n1` (stereo not shown) [compound 360, N-[4-fluoro-4-(trifluoromethyl)phenyl]-6-(2-methyl-1H-imidazo[4,5-b]pyridin-1-yl)pyrazin-2-amine] the EC50 was 10 to 100 nM. In the case of `Cc1nc2ncc(Cl)cc2n1-c1cncc(Nc2ccc(C(F)(F)F)cc2)n1` [compound 361, 6-(6-chloro-2-methyl-1H-imidazo[4,5-b]pyridin-1-yl)-N-[4-(trifluoromethyl)phenyl]pyrazin-2-amine], the EC50 is reported as 1 to 10 nM. For `Nc1cc(Nc2ccc(C(F)(F)F)c(F)c2)nc(-c2c(C3CC3)nc3ccc(F)cn23)c1` [compound 364, 6-(2-cyclopropyl-6-fluoroimidazo[1,2-a]pyridin-3-yl)-N^2-[3-fluoro-4-(trifluoromethyl)phenyl]pyridine-2,4-diamine], the EC50 was 10 to 100 nM. Work on `CCc1nc2cnccc2n1-c1cncc(Nc2ccc(C(F)(F)F)cc2)n1` [compound 370, 6-(2-ethyl-1H-imidazo[4,5-c]pyridin-1-yl)-N-[4-(trifluoromethyl)phenyl]pyrazin-2-amine] yielded an EC50 of 100 to 3000 nM. `Cc1nc2ncncc2n1-c1cncc(Nc2ccc(C(F)(F)F)cc2)n1` [compound 371, 6-(8-methyl-7H-purin-7-yl)-N-[4-(trifluoromethyl)phenyl]pyrazin-2-amine] was tested, and the EC50 was 100 to 3000 nM. For `Cc1nc2ncc(F)cc2n1-c1cncc(Nc2ccc(C(F)(F)F)c(F)c2)n1` [compound 373, 6-(6-fluoro-2-methyl-1H-imidazo[4,5-b]pyridin-1-yl)-N-[3-fluoro-4-(trifluoromethyl)phenyl]pyrazin-2-amine], the EC50 was 10 to 100 nM. `CCc1nc2ncc(F)cc2n1-c1cncc(Nc2ccc(C(F)(F)F)c(F)c2)n1` [compound 374, 6-(2-ethyl-6-fluoro-1H-imidazo[4,5-b]pyridin-1-yl)-N-[3-fluoro-4-(trifluoromethyl)phenyl]pyrazin-2-amine] was tested, and the EC50 was 10 to 100 nM. Work on `C=CCN1CCc2c(nc(C)n2-c2cncc(Nc3ccc(C(F)(F)F)cc3)n2)C1` [compound 375] yielded an EC50 of 100 to 3000 nM. `COc1ccc2nc(C)c(-c3cncc(Nc4ccc(C(F)(F)F)cc4)n3)n2c1` [compound 376, 6-(6-methoxy-2-methylimidazo[1,2-a]pyridin-3-yl)-N-[4-(trifluoromethyl)phenyl]pyrazin-2-amine] gave an EC50 of 10 to 100 nM. `COc1ccc2nc(C)c(-c3cncc(Nc4ccc(OC(F)(F)F)cc4)n3)n2c1` [compound 377, 6-(6-methoxy-2-methylimidazo[1,2-a]pyridin-3-yl)-N-[4-(trifluoromethoxy)phenyl]pyrazin-2-amine] was tested, and the EC50 was 10 to 100 nM. In the case of `Cc1nc2ccc(O)cn2c1-c1cncc(Nc2ccc(C(F)(F)F)cc2)n1` [compound 378, 2-methyl-3-(6-{[4-(trifluoromethyl)phenyl]amino}pyrazin-2-yl)imidazo[1,2-a]pyridin-6-ol], the EC50 is reported as 10 to 100 nM. With `COc1ccc2nc(C)c(-c3cc(C#N)cc(Nc4ccc(C(F)(F)F)cc4)n3)n2c1` [compound 379, 2-(6-methoxy-2-methylimidazo[1,2-a]pyridin-3-yl)-6-{[4-(trifluoromethyl)phenyl]amino}pyridine-4-carbonitrile] the EC50 was 10 to 100 nM. `COc1ccc2nc(C)c(-c3cc(C#N)cc(Nc4ccc(OC(F)(F)F)cc4)n3)n2c1` [compound 380, 2-(6-methoxy-2-methylimidazo[1,2-a]pyridin-3-yl)-6-{[4-(trifluoromethoxy)phenyl]amino}pyridine-4-carbonitrile] was tested, and the EC50 was 10 to 100 nM. Work on `Cc1nc2ccc(O)cn2c1-c1cc(C#N)cc(Nc2ccc(C(F)(F)F)cc2)n1` [compound 381, 2-(6-hydroxy-2-methylimidazo[1,2-a]pyridin-3-yl)-6-{[4-(trifluoromethyl)phenyl]amino}pyridine-4-carbonitrile] yielded an EC50 of 10 to 100 nM. With `N#Cc1cc(Nc2ccc(C(F)(F)F)cc2)nc(-c2c(CO)nc3ccc(F)cn23)c1` [compound 383, 2-[6-fluoro-2-(hydroxymethyl)imidazo[1,2-a]pyridin-3-yl]-6-{[4-(trifluoromethyl)phenyl]amino}pyridine-4-carbonitrile] the EC50 was 10 to 100 nM. Work on `FC(F)(F)c1ccc(Nc2cncc(-c3ccnc4ccccc34)n2)cc1` [compound 384, 6-(quinolin-4-yl)-N-[4-(trifluoromethyl)phenyl]pyrazin-2-amine] yielded an EC50 of 100 to 3000 nM. Work on `FC(F)(F)c1ccc(Nc2cncc(-c3ccnc4cc(Cl)ccc34)n2)cc1` [compound 385, 6-(7-chloroquinolin-4-yl)-N-[4-(trifluoromethyl)phenyl]pyrazin-2-amine] yielded an EC50 of 100 to 3000 nM. With `Cc1cc2nc(C)n(-c3cncc(Nc4ccc(C(F)(F)F)cc4)n3)c2cc1C` [compound 386, N-[4-(trifluoromethyl)phenyl]-6-(2,5,6-trimethyl-1H-benzimidazol-1-yl)pyrazin-2-amine] the EC50 was 100 to 3000 nM. `Cc1cc2nc(C)n(-c3cncc(Nc4ccc(OC(F)(F)F)cc4)n3)c2cc1C` [compound 387, N-[4-(trifluoromethoxy)phenyl]-6-(2,5,6-trimethyl-1H-benzimidazol-1-yl)pyrazin-2-amine] gave an EC50 of 100 to 3000 nM. With `Cc1nc2ccc(Br)cc2n1-c1cncc(Nc2ccc(C(F)(F)F)cc2)n1` [compound 388, 6-(6-bromo-2-methyl-1H-benzimidazol-1-yl)-N-[4-(trifluoromethyl)phenyl]pyrazin-2-amine] the EC50 was 10 to 100 nM. Compound `Cc1nc2ccccc2n1-c1cncc(Nc2ccc(C(F)(F)F)c(Cl)c2)n1` [compound 390, N-[3-chloro-4-(trifluoromethyl)phenyl]-6-(2-methyl-1H-benzimidazol-1-yl)pyrazin-2-amine] has an EC50 of 10 to 100 nM. `N#Cc1cc(Nc2ccc(OC(F)F)cc2)nc(-c2c(CO)nc3ccc(F)cn23)c1` [compound 393, 2-{[4-(difluoromethoxy)phenyl]amino}-6-[6-fluoro-2-(hydroxymethyl)imidazo[1,2-a]pyridin-3-yl]pyridine-4-carbonitrile] gave an EC50 of 10 to 100 nM. `N#Cc1cc(Nc2ccc(OC(F)F)c(F)c2)nc(-c2c(CO)nc3ccc(F)cn23)c1` [compound 394, 2-{[4-(difluoromethoxy)-3-fluorophenyl]amino}-6-[6-fluoro-2-(hydroxymethyl)imidazo[1,2-a]pyridin-3-yl]pyridine-4-carbonitrile] gave an EC50 of 10 to 100 nM. In the case of `N#Cc1cc(Nc2ccc(C(F)(F)F)c(F)c2)nc(-c2c(CO)nc3ccc(F)cn23)c1` [compound 395, 2-[6-fluoro-2-(hydroxymethyl)imidazo[1,2-a]pyridin-3-yl]-6-{[3-fluoro-4-(trifluoromethyl)phenyl]amino}pyridine-4-carbonitrile], the EC50 is reported as 100 to 3000 nM. `Cc1nc2ccc(O)cn2c1-c1cc(C#N)cc(Nc2ccc(OC(F)(F)F)cc2)n1` [compound 396, 2-(6-hydroxy-2-methylimidazo[1,2-a]pyridin-3-yl)-6-{[4-(trifluoromethoxy)phenyl]amino}pyridine-4-carbonitrile] gave an EC50 of 10 to 100 nM. `Cc1nc2ccc(NCCO)cc2n1-c1cncc(Nc2ccc(C(F)(F)F)cc2)n1` [compound 397, 2-{[2-methyl-1-(6-{[4-(trifluoromethyl)phenyl]amino}pyrazin-2-yl)-1H-benzimidazol-6-yl]amino}ethanol] showed an EC50 of 100 to 3000 nM. With `CCc1nc2c(n1-c1cncc(Nc3ccc(C(F)(F)F)cc3)n1)CN(C)CC2` [compound 398, 6-(2-ethyl-5-methyl-4,5,6,7-tetrahydro-3H-imidazo[4,5-c]pyridin-3-yl)-N-[4-(trifluoromethyl)phenyl]pyrazin-2-amine] the EC50 was 100 to 3000 nM. `COCCn1nc(C)c(-c2cncc(Nc3ccc(C(F)(F)F)cc3)n2)c1C` [compound 399, 6-[1-(2-methoxyethyl)-3,5-dimethyl-1H-pyrazol-4-yl]-N-[4-(trifluoromethyl)phenyl]pyrazin-2-amine] gave an EC50 of 1 to 10 nM. `Cc1nc2cc(F)c(F)cc2n1-c1cncc(Nc2ccc(Cl)nc2)n1` [compound 405, N-(6-chloropyridin-3-yl)-6-(5,6-difluoro-2-methyl-1H-benzimidazol-1-yl)pyrazin-2-amine] showed an EC50 of 100 to 3000 nM. Compound `FC1CCc2nc(C(F)(F)F)c(-c3cncc(Nc4ccc(C(F)(F)F)cc4)n3)n2C1` (stereo not shown) [compound 406, 6-[6-fluoro-2-(trifluoromethyl)-5,6,7,8-tetrahydroimidazo[1,2-a]pyridin-3-yl]-N-[4-(trifluoromethyl)phenyl]pyrazin-2-amine] has an EC50 of 10 to 100 nM. With `FC(F)(F)c1ccc(Nc2cncc(-c3cccc4[nH]ccc34)n2)cc1` [compound 407, 6-(1H-indol-4-yl)-N-[4-(trifluoromethyl)phenyl]pyrazin-2-amine] the EC50 was 100 to 3000 nM. Compound `Cc1cc(Nc2cncc(-n3c(C)nc4ccccc43)n2)ccc1C(F)(F)F` [compound 408, 6-(2-methyl-1H-benzimidazol-1-yl)-N-[3-methyl-4-(trifluoromethyl)phenyl]pyrazin-2-amine] has an EC50 of 10 to 100 nM. For `COC1CCc2nc(C)c(-c3cncc(Nc4ccc(C(F)(F)F)cc4)n3)n2C1` (stereo not shown) [compound 409, 6-(6-methoxy-2-methyl-5,6,7,8-tetrahydroimidazo[1,2-a]pyridin-3-yl)-N-[4-(trifluoromethyl)phenyl]pyrazin-2-amine], the EC50 was 1 to 10 nM.
